Test results published in ChEMBL document CHEMBL1201862, “PubChem BioAssay data set” (2004).
Active and inactive are the calls of the source.

How the values were obtained:
[1] = inhibitors of intracellular T. cruzi replication, confirmation, NIH3T3 host cells, beta-gal luminescence (AID 2044); format: functional, cell-based;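 also: intracellular parasites grown in NIH/3T3 mouse fibroblasts as host cells; luminescent beta-galactosidase reporter signal from transgenic T. cruzi replicating inside host cells; inhibitors lower the luminescence signal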
[2] = cytotoxicity toward NIH3T3 fibroblasts, dose response, counter-screen, cell-based, ATP luminescence, mouse fibroblasts (AID 2010); format: functional;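 also: cells exposed to compound for about 90 hours before reading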
[3] = THP-1 cell cytotoxicity, dose response, cytotoxicity control for non-replicating M. tuberculosis project (AID 489025); format: functional
[4] = HepG2 cell cytotoxicity, dose response, cytotoxicity control for non-replicating M. tuberculosis project (AID 489018); format: functional; conditions: Mycobacterium tuberculosis
[5] = Vero E6 cell cytotoxicity, dose response, cytotoxicity control for non-replicating M. tuberculosis project, secondary assay (AID 492998); format: functional, VeroE6; conditions: Vero C1008
[6] = cells; format: functional
[7] = molecular target: T1, E3 ubiquitin-protein ligase XIAP (Homo sapiens, UniProt P98170); assay: Counter Screen using XIAP-Bir3 for Chemical Antagonists of Bir1/2 domains of IAP-family anti-apoptotic proteins. [Related pubchem assays (depositor defined):AID1018, AID1449, AID1514, AID1638, AID1749, AID1750, AID488957, AID488963]
[8] = molecular target: T1, E3 ubiquitin-protein ligase XIAP; assay: XIAP antagonists, biochemical, IAP family, fluorescence polarization (AID 1018); format: functional
[9] = growth suppression of PTEN-null colon cells, dose response, cell-based, HCT116 PTEN knockout (AID 1047); format: functional;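 also: HCT116 colon tumor cells with PTEN knocked out; cells exposed to compound for 60 hours before readout; potency for loss of cell viability measured by luminescence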
[10] = growth suppression of beta-catenin-knockout colon cells, dose response, cell-based, HCT116, human colon tumor (AID 1045); format: functional;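 also: HCT116 colon tumor cells with beta catenin knocked out; cells exposed to compound for 60 hours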
[11] = molecular target: Induced myeloid leukemia cell differentiation protein Mcl-1 (Homo sapiens, UniProt Q07820); format: functional
[12] = molecular target: Glucose-6-phosphate 1-dehydrogenase (Homo sapiens, UniProt P11413); assay: human G6PD enzyme inhibitors, dose response, selectivity assay for P. falciparum G6PD inhibitor project, biochemical, fluorescence (AID 504792); format: functional
[13] = Luminescence Cell-Based Dose Retest to Confirm Inhibitors of Cancer Stem Cells. [Related pubchem assays (depositor defined):AID2717, AID2721]; format: functional; conditions: Homo sapiens
[14] = molecular target: Beta-galactosidase (Escherichia coli, UniProt Q8VNN2); assay: beta-galactosidase enzyme inhibitors and activators, dose response, artefact control for CCR6 antagonist project, biochemical, E. coli enzyme, set 3 (AID 504712); format: functional
[15] = molecular target: DNA dC->dU-editing enzyme APOBEC-3G (Homo sapiens, UniProt Q9HC16); assay: Dose Response confirmation of small molecule APOBEC3G DNA Deaminase Inhibitors via a fluorescence-based single-stranded DNA deaminase assay. [Related pubchem assays (depositor defined):AID493012, AID493028]; format: functional
[16] = molecular target: Heat shock protein HSP 90-alpha (Homo sapiens, UniProt P07900); format: functional, organism-based
[17] = Shn3 3'UTR reporter inhibitors, dose response, cell-based, Clone20 osteoblasts, firefly luciferase, cherry-picked (AID 624132); format: functional;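 also: firefly luciferase luminescence from reporter carrying the Shn3 3'UTR in osteoblasts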
[18] = HepG2 cell cytotoxicity, dose response, cytotoxicity control for Shn3 inhibitor project, CellTiter-Glo, cherry-picked (AID 624134); format: functional, cell-based
[19] = control 3'UTR Renilla luciferase suppression, dose response, counter-screen for Shn3 inhibitor project, cell-based, Clone20-Shn3RL, cherry-picked (AID 624133); format: functional
[20] = reduction of Shn3 3'UTR firefly luciferase signal, dose response, Schnurri-3 inhibitor project, cell-based, Clone20 osteoblasts, cherry-pick, set 2 (AID 720490); format: functional;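 also: actives lower the luminescence signal as inhibitors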
[21] = inhibitors of control Renilla luciferase reporter, dose response, counter-screen for Shn3 3'UTR targeting project, Clone20-Shn3RL cells, dual-Glo, cherry-pick, set 2 (AID 720724); format: functional, cell-based; conditions: Dual-Go Shn3RL
[22] = molecular target: Troponin, cardiac muscle (Homo sapiens, UniProt P19429+P45379+P63316); assay: Fluorescence-based biochemical high throughput dose response assay for activators of the calcium sensitivity of cardiac Regulated Thin Filaments (RTF). [Related pubchem assays (depositor defined):AID493008, AID493018, AID504382, AID504383]; format: protein-complex assay
[23] = molecular target: T2, Hexokinase HKDC1 (Homo sapiens, UniProt Q2TB90); assay: HKDC1 hexokinase activators, dose response, biochemical, W721R variant (AID 504730); format: functional
T2 sequence (Q2TB90 whole entry): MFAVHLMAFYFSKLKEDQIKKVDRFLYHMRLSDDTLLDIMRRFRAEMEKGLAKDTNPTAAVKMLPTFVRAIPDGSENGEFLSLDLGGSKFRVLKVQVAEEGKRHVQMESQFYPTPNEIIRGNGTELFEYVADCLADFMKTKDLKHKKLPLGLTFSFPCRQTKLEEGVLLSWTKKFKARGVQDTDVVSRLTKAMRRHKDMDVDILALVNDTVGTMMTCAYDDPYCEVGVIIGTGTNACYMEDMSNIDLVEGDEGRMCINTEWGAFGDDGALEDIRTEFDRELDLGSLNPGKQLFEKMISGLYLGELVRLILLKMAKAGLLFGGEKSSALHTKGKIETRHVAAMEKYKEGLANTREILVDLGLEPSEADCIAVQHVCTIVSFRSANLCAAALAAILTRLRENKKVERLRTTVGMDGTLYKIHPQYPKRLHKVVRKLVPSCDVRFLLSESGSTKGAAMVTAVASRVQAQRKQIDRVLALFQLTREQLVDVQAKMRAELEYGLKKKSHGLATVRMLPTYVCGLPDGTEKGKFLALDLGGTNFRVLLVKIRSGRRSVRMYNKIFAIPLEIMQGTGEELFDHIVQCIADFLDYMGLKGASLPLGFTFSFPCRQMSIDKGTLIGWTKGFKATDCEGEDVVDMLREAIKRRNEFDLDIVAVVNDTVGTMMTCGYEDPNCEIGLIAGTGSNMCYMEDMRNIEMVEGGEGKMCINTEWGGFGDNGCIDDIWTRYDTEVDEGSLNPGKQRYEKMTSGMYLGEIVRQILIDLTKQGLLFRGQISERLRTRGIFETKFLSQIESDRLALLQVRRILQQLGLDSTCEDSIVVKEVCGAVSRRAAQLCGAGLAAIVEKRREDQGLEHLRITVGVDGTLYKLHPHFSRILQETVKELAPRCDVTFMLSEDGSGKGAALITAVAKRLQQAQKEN

[24] = molecular target: Hexokinase-1 (Homo sapiens, UniProt P19367); assay: hexokinase 1 activators, dose response, selectivity assay for HKDC1 activator project, biochemical (AID 504762); format: functional
[25] = molecular target: G-protein coupled receptor 55 (Homo sapiens, UniProt Q9Y2T6); assay: GPR55 antagonists blocking LPI-driven arrestin recruitment, primary screen, imaging, U2OS, beta-arrestin-GFP, LPI agonist (AID 2013); format: functional;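 also: antagonist potency measured as reduced agonist-driven arrestin aggregation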
[26] = molecular target: Large T antigen (Simian virus 40, UniProt P03070); format: functional, Betapolyomavirus macacae;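 also: Confirmatory-stage PubChem screen for compounds that inhibit SV40 T antigen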
[27] = molecular target: FAD-linked sulfhydryl oxidase ALR (Homo sapiens, UniProt P55789); assay: inhibitors of human ALR sulfhydryl oxidase, dose response, biochemical, H2O2 detection, luminescence, cherry-pick (AID 493248)
[28] = molecular target: T3, Polyadenylate-binding protein 1 (Homo sapiens, UniProt P11940); assay: PABP1 MLLE–PAM2 interaction inhibitors, dose response, miRNA deadenylation inhibitor project, biochemical, fluorescence polarization, Cy5-PAM2 peptide, secondary (AID 602260); format: functional; conditions: read-out: IC50_Mean
[29] = molecular target: T3, Polyadenylate-binding protein 1; assay: PABP1 MLLE–PAM2 binding inhibitor potency, dose response, biochemical, fluorescence polarization, FITC-PAM2 peptide (AID 602259); format: functional; conditions: read-out: IC50_Mean
[30] = system: HEK293; assay: inhibitors of LMP1-driven NF-kB reporter, dose response, cell-based, HEK293, luciferase, cherry-pick (AID 588343); format: functional; conditions: Homo sapiens
[31] = system: H9c2; assay: cells; format: functional, cell-based; conditions: Rattus norvegicus, H9c2, Myocardium;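 also: confirmatory concentration-response retest of ultra-high-throughput screening hits for modulation of myocardial damage; cell death induced by hydrogen peroxide oxidative stress; compound pretreatment for 60 min then peroxide exposure for 2 h; potency is for protecting the cells against peroxide damage rather than for killing them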

T1 sequence (P98170 whole entry): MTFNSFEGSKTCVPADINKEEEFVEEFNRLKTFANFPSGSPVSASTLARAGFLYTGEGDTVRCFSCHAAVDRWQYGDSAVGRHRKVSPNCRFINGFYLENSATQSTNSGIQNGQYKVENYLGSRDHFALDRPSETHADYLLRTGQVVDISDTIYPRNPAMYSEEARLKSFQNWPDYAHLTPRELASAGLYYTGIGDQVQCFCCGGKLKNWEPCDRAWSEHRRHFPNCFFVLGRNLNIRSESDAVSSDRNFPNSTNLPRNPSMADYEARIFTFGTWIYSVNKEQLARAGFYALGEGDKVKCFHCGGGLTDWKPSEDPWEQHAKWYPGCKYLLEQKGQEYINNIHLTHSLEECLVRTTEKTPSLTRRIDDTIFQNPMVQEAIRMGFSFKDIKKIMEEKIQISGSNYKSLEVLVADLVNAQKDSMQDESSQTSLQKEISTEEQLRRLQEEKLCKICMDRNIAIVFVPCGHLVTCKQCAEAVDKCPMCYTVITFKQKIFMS
T3 sequence (P11940 whole entry): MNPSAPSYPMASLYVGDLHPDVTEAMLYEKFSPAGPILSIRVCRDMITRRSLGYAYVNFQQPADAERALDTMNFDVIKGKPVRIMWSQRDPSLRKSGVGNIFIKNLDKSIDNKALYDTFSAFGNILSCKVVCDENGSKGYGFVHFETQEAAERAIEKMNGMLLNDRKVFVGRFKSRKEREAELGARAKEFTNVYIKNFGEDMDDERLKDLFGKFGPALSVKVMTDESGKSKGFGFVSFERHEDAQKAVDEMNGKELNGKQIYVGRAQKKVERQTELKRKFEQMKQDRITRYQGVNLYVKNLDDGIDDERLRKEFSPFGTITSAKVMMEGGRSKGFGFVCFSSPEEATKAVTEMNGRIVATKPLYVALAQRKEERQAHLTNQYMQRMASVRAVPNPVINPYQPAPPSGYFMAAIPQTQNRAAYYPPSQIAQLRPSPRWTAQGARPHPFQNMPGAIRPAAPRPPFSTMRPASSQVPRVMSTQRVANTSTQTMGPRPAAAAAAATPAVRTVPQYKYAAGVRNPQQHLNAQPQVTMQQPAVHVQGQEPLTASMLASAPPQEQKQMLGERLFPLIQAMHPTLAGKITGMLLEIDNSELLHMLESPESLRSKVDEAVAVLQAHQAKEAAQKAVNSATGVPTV
Chain of G-protein coupled receptor 55 (Q9Y2T6 whole entry): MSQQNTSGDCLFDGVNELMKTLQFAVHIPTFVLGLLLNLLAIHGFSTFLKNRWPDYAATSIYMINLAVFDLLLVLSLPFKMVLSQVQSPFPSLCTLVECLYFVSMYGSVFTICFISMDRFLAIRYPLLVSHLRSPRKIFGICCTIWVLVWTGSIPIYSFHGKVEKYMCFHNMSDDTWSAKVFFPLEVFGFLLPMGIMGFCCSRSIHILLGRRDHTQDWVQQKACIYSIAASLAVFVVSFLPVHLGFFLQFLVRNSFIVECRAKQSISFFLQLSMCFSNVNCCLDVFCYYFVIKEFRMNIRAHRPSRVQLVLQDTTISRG
Chain of Glucose-6-phosphate 1-dehydrogenase (P11413 whole entry): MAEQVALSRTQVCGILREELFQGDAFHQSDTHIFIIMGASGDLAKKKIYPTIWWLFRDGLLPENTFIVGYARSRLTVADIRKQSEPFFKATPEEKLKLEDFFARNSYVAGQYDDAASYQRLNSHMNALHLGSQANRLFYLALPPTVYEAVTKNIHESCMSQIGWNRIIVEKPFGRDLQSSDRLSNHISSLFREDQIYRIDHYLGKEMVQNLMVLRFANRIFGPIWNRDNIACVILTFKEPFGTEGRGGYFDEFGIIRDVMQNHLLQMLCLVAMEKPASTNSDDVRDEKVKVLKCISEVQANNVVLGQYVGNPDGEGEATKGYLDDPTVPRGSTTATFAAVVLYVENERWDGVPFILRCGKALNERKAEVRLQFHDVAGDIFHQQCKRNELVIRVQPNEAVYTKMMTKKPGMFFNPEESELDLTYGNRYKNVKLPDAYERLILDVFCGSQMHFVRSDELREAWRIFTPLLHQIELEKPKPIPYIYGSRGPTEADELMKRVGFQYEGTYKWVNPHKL
Chain of DNA dC->dU-editing enzyme APOBEC-3G (Q9HC16 whole entry): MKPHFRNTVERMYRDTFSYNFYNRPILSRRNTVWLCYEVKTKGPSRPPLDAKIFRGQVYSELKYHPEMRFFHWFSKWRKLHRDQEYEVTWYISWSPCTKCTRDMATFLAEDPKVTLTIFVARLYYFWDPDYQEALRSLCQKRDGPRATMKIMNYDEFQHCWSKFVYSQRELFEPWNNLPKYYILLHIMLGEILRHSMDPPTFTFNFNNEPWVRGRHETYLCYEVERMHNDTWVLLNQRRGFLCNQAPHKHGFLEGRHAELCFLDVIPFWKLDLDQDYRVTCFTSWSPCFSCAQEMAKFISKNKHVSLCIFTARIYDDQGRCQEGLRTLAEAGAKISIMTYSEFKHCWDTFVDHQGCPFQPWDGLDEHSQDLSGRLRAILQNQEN
Chain of Induced myeloid leukemia cell differentiation protein Mcl-1 (Q07820 whole entry): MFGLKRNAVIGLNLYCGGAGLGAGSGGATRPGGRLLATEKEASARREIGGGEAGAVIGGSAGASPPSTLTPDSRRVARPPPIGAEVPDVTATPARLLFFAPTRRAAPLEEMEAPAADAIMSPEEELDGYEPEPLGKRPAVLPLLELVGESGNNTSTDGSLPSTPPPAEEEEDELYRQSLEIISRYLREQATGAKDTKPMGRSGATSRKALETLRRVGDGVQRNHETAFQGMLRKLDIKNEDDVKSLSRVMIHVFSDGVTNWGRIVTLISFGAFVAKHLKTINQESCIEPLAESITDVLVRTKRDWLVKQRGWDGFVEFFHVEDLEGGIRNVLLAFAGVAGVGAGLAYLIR
Chain of Large T antigen (P03070 whole entry): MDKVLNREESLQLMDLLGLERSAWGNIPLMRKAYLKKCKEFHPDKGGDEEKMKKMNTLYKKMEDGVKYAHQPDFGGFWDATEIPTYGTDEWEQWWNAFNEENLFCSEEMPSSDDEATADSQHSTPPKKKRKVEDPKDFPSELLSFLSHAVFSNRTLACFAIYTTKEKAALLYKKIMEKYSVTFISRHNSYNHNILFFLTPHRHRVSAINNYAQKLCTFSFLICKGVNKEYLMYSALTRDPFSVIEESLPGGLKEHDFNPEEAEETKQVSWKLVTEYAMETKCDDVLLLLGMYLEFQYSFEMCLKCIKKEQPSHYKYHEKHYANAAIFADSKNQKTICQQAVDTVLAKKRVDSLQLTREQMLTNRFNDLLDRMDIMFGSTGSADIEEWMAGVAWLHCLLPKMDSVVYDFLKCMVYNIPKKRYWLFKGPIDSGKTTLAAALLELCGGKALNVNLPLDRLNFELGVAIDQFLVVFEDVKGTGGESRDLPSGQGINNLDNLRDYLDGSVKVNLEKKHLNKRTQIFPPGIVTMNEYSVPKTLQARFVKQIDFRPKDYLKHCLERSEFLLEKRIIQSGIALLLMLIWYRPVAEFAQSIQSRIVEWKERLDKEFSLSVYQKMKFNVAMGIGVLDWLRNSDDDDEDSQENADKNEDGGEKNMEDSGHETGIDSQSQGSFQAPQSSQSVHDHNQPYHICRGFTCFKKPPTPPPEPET
Chain of FAD-linked sulfhydryl oxidase ALR (P55789 whole entry): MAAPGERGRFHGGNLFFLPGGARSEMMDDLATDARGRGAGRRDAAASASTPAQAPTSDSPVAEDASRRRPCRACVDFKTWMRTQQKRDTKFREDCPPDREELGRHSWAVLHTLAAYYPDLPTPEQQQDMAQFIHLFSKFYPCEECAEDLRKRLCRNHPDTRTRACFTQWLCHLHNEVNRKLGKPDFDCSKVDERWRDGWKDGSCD
Chain of Beta-galactosidase (Q8VNN2 whole entry): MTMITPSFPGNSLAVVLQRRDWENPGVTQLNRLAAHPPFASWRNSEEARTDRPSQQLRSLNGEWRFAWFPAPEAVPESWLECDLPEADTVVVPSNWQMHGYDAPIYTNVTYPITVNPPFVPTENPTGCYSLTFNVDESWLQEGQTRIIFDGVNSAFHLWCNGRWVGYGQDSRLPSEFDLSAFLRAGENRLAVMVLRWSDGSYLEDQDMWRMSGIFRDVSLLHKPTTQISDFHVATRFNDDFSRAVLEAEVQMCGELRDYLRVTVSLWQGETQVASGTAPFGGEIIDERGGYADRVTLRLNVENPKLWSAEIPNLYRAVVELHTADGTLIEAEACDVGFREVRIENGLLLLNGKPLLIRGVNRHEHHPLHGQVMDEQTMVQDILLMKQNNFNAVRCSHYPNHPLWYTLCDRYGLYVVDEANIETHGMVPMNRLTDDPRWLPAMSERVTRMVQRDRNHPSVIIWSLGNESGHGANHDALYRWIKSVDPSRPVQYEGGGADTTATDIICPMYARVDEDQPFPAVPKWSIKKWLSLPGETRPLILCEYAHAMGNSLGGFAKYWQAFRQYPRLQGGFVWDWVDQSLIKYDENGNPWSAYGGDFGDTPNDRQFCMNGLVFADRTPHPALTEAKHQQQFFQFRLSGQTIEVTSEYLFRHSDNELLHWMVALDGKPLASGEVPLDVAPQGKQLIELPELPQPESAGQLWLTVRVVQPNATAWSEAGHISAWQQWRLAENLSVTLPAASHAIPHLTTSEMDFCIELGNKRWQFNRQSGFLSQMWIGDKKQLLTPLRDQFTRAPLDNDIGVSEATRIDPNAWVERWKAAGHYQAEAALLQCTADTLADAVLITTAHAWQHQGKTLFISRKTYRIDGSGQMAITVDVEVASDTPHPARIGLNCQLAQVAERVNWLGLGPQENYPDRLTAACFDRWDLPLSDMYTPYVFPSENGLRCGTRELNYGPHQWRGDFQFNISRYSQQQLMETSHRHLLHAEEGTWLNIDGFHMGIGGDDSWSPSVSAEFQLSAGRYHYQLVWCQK

With `Cc1ccnc(NS(=O)(=O)c2ccc(NC(=O)c3ccc([N+](=O)[O-])s3)cc2)n1` the EC50 [1] was 0.967 µM (active), the EC50 [2] was > 60 µM (not active) and the CC50 [3] was 10.2 µM (active). The CC50 [4] was > 20 µM (active), the CC50 [5] was > 20 µM (active) and the IC50 [6] was 6.24 µM (active).
In the case of `O=C(/C=C/c1ccco1)Nc1ccc2nn(-c3ccccc3)nc2c1`, the IC50 [7] is reported as > 100 µM (inactive), the IC50 [8] is reported as > 100 µM (not active) and the EC50 [9] is reported as 4.11 µM (active). For the same compound, the EC50 [10] was 4.53 µM (active) and the IC50 [11] was 5.43 µM (active).
For `O=C(O)CCCNC(=O)c1cncc(Br)c1`, the IC50 [7] was > 100 µM (inactive) and the IC50 [8] was > 100 µM (not active).
For `Cc1ccc(NC(=O)c2ccc(Cl)c(N3C(=O)C=CC3=O)c2)cc1`, the IC50 [12] was 48.8 µM (inactive), the AC50 [13] was 4.21 µM (active) and the IC50 [14] was > 66.6 µM (inactive). For the same compound, the IC50 [15] was 37.7 µM (active), the AC50 [16] was 3.64 µM (active) and the AC50 [17] was 1.6 µM (active). The AC50 [18] was 55.1 µM (active), the AC50 [19] was 9.79 µM (active) and the AC50 [20] was 5.17 µM (active). For the same compound, the AC50 [21] was 1.93 µM (active).
In the case of `COc1ccc(C)cc1NC(=O)C12CCC(C)(C(=O)O1)C2(C)C` (stereo not drawn), the EC50 [22] is reported as > 71.5 µM (inactive).
With `Cc1cc(C2=NN=C(Nc3ccc(S(=O)(=O)N4CCOCC4)cc3)SC2)c(C)n1CC1CCCO1` (stereo not drawn) the EC50 [23] was 31.2 µM (inactive) and the EC50 [24] was 29.5 µM (inactive).
For `CCn1c(Cn2nnc(-c3ccccc3)n2)nnc1SCc1ccc(Cl)c(Cl)c1`, the IC50 [25] was 2.8 µM (active).
In the case of `Nc1nc2ccc(S(=O)(=O)N3CCCCC3)cc2s1`, the IC50 [25] is reported as 13.9 µM (inactive), the IC50 [26] is reported as 8.51 µM (active) and the AC50 [27] is reported as 3.3 µM (active). For the same compound, the IC50 [28] was > 66 µM (inactive) and the IC50 [29] was > 66 µM (inactive).
With `COc1cccc(-c2nnc(NC(=O)c3ccc(S(=O)(=O)N(CC(C)C)CC(C)C)cc3)o2)c1` the CC50 [3] was 0.996 µM (active), the CC50 [4] was 5.3 µM (active) and the CC50 [5] was 2.37 µM (active). The IC50 [6] was 16.3 µM (active), the AC50 [30] was 8.51 µM (active) and the IC50 [31] was > 79 µM (inactive).
